Experimental data: patent publication US11834453B2, “Substituted pyrimido[5,4-d]pyrimidines as HER2 inhibitors” (Array BioPharma Inc., priority 2020, dated 2023)
Like-named read-outs stand apart in the source and are kept apart here.

What was measured:
[1] = molecular target: EGFR (Homo sapiens (Human), UniProt P00533); assay: ErbB enzyme assay (CisBio HTRF KinEASE-TK), Assay 3; type: biochemical
Protocol: (§1) Compound potencies were determined using CisBio's HTRF Kinease-TK assay technology. The kinases were incubated with 250 nM TK-substrate biotin (CisBio, part of cat #62TK0PEC) at 1 mM ATP along with test compounds in a buffer consisting of 25 mM HEPES, pH 7.4, 10 mM MgCl2, 0.01% Triton X-100, and 2% DMSO in a volume of 8 μL. Compounds were prepared as a three-fold serial dilution in DMSO and added to the assay to give the appropriate final concentration. After 30-minute incubation at 22° C., the reaction was quenched by adding 8 μL of quench solution containing 62.5 nM Sa-XL665 and 0.25× TK-Ab-Cryptate in HTRF detection buffer (all from CisBio, part of cat #62TK0PEC). After a 1-hour incubation at 22° C., the extent of reaction was determined using a PerkinElmer EnVision multimode plate reader via HTRF dual wavelength detection, and the percent of control (POC) was calculated using a ratiometric emission factor. One hundred POC was determined using DMSO only samples (no compound present), and 0 POC was determined using pre-quenched control reactions. A 4-parameter logistic curve was fit to the POC values as a function of the concentration of compound, and the IC50 value was the point where the best-fit curve crossed 50 POC.
(§2) Enzyme lots and concentration used are in Table 2.

[2] = molecular target: ErbB2 WT (Homo sapiens (Human), UniProt P04626); assay: ErbB enzyme assay (CisBio HTRF KinEASE-TK), Assay 2; type: biochemical
Chain of ErbB2 WT (P04626 23-1255): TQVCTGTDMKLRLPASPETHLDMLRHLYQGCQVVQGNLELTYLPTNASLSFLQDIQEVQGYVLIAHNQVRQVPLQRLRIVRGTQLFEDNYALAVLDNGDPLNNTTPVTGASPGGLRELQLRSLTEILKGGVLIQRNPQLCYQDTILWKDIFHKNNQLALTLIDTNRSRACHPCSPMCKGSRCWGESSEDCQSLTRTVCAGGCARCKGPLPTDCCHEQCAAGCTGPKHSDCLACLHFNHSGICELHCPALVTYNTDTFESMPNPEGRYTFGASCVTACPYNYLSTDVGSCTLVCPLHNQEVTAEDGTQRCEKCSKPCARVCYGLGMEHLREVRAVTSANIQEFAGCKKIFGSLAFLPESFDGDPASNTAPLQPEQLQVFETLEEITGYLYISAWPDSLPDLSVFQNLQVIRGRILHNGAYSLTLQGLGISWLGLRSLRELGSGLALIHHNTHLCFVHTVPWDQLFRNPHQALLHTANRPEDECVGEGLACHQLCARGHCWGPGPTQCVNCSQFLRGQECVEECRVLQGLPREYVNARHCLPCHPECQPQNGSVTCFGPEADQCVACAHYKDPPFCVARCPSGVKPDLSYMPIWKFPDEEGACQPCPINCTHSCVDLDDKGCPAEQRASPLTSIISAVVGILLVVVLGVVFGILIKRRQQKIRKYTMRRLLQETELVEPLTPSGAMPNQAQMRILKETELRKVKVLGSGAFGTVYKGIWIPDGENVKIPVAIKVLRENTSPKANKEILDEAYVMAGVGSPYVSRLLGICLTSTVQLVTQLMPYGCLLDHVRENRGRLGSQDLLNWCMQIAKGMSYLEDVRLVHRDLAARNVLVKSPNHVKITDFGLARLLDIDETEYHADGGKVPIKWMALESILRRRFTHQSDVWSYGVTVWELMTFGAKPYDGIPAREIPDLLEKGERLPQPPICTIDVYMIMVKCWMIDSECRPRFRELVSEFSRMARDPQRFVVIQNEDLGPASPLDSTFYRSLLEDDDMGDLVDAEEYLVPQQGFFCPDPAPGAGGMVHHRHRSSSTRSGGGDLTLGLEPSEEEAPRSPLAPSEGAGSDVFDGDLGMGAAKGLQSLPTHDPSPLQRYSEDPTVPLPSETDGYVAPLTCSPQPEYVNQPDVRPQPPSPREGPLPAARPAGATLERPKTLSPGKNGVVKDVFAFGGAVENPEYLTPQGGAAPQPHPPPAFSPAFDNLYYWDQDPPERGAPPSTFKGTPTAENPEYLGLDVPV
Protocol: as §1, with “Compounds were prepared as a three-fold serial dilution in DMSO and added to the assay to give the appropriate final concentration.” left out, “reactions.” for “reactions. A 4-parameter logistic curve was fit to the POC values as a function of the concentration of compound, and the IC50 value was the point where the best-fit curve crossed 50 POC.”
as §2

[3] = molecular target: ErbB2 with Exon 20 YVMA insertion (HER2-YVMA) (Homo sapiens (Human), UniProt P04626, INS775YVMA); assay: Cellular phosphorylation assay, constitutive ErbB2 phosphorylation (Y1196) in engineered NIH 3T3 cells, Assay 4; type: cell-based
Chain of ErbB2 with Exon 20 YVMA insertion (HER2-YVMA) (P04626 other isoform, or with tags, fused parts or gaps ins YVMA behind 775): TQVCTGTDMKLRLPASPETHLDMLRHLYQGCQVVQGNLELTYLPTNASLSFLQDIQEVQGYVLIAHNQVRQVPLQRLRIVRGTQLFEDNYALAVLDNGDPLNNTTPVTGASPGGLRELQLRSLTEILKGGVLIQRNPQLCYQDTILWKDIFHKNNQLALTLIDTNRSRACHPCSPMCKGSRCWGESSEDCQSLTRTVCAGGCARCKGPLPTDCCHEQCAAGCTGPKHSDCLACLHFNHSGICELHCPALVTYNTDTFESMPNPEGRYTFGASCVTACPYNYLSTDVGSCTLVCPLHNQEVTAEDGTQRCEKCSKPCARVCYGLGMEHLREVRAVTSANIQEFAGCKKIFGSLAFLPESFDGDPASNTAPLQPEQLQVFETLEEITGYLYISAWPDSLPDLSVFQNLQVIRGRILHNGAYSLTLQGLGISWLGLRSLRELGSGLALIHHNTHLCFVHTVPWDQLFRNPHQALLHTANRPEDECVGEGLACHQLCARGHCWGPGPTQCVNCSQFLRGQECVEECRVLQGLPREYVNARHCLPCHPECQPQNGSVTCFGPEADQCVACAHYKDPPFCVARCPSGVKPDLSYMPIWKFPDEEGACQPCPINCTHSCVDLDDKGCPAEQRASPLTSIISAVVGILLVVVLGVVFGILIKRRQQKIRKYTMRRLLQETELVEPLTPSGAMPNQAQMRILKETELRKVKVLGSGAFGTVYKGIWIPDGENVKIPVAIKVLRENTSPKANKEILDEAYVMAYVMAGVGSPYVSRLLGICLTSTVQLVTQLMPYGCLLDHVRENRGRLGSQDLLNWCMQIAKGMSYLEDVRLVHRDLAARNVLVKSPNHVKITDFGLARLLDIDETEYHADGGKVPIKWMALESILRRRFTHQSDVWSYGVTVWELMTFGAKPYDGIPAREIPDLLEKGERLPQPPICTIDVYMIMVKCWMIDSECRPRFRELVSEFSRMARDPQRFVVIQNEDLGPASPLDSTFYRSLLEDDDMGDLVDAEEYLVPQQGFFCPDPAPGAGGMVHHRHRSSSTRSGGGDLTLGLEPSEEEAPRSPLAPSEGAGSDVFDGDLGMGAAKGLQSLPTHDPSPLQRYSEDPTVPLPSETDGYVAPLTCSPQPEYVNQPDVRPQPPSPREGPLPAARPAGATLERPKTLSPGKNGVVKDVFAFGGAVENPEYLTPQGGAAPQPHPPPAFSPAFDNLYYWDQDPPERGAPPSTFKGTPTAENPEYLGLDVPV
Protocol: Serially diluted compounds were added to the plates for 1 hour at 37° C./5% CO2. EGFR WT cells were stimulated with 100 ng/ml rEGF for an additional 10 minutes at 37° C./5% CO2. After compound incubation, medium was removed from the cells, which were then fixed in 3.7% formaldehyde in PBS at room temperature for 20 minutes. Following a wash with PBS, cells were permeabilized with 100% methanol at room temperature for 10 minutes. Cells were then washed with PBS/0.05% Tween-20 and blocked with Odyssey blocking buffer (LI-COR Biosciences) for at least 1 hour at room temperature. Antibodies to phosphorylated ErbB2 (Y1196, Cell Signaling #6942) or phosphorylated EGFR (Y1068, Cell Signaling #3777) and GAPDH (Millipore #MAB374) were added to the cells in blocking buffer containing 0.05% azide and incubated overnight at 4° C. After washing with PBS/0.05° i° Tween-20, the cells were incubated with fluorescently labeled secondary anti-rabbit antibody (LiCOR, IRDye 800CW #926-32211) and anti-mouse antibody (Molecular Probes, Alexa Fluor 680 #A21058) for 1 hour at room temperature in the dark. Cells were then washed and analyzed for fluorescence at both wavelengths using the Odyssey Infrared Imaging System (LI-COR Biosciences). Phosphorylated ErbB2 and EGFR signal was normalized to GAPDH signal to generate curves and calculate IC50 values.

[4] = molecular target: ErbB2 insYVMA (HER2-YVMA, SEQ ID NO: 2) (Homo sapiens, UniProt P04626, INS775YVMA/P1170A); assay: biochemical; conditions: ErbB2 insYVMA enzyme assay
Chain of ErbB2 insYVMA (HER2-YVMA, SEQ ID NO: 2) (P04626 with tags, fused parts or gaps INS775YVMA/P1170A limits assumed): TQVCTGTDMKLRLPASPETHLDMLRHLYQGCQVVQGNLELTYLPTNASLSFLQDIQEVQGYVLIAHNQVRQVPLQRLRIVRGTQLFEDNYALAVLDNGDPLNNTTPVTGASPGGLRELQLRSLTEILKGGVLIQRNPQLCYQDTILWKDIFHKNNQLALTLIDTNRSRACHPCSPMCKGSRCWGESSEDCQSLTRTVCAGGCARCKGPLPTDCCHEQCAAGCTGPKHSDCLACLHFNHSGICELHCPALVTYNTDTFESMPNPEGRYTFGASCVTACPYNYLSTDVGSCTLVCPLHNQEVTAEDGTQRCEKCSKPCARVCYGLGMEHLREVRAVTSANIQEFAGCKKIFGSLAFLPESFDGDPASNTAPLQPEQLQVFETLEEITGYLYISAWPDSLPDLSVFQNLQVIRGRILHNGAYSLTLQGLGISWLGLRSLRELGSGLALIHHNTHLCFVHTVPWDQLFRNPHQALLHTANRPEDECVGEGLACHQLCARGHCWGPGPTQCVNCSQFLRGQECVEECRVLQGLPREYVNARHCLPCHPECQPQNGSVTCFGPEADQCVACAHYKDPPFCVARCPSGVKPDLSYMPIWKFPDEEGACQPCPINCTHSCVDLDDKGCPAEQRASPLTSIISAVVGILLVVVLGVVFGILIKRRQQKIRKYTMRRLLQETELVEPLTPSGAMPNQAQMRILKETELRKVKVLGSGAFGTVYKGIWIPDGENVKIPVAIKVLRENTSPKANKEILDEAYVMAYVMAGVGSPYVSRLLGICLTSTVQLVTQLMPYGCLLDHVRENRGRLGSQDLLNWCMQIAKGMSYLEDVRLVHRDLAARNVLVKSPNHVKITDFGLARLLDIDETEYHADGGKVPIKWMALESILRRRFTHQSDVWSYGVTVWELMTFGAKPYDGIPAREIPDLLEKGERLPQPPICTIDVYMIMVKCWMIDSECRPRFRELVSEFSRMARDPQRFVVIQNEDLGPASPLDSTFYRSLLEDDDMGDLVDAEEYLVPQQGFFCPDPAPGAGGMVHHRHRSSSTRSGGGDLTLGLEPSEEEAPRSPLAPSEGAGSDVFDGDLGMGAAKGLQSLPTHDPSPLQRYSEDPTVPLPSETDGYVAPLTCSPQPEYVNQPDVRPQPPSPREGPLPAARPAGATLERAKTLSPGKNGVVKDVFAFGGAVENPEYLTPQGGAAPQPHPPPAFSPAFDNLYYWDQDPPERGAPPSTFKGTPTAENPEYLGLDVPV

Chain of EGFR (P00533 25-1210): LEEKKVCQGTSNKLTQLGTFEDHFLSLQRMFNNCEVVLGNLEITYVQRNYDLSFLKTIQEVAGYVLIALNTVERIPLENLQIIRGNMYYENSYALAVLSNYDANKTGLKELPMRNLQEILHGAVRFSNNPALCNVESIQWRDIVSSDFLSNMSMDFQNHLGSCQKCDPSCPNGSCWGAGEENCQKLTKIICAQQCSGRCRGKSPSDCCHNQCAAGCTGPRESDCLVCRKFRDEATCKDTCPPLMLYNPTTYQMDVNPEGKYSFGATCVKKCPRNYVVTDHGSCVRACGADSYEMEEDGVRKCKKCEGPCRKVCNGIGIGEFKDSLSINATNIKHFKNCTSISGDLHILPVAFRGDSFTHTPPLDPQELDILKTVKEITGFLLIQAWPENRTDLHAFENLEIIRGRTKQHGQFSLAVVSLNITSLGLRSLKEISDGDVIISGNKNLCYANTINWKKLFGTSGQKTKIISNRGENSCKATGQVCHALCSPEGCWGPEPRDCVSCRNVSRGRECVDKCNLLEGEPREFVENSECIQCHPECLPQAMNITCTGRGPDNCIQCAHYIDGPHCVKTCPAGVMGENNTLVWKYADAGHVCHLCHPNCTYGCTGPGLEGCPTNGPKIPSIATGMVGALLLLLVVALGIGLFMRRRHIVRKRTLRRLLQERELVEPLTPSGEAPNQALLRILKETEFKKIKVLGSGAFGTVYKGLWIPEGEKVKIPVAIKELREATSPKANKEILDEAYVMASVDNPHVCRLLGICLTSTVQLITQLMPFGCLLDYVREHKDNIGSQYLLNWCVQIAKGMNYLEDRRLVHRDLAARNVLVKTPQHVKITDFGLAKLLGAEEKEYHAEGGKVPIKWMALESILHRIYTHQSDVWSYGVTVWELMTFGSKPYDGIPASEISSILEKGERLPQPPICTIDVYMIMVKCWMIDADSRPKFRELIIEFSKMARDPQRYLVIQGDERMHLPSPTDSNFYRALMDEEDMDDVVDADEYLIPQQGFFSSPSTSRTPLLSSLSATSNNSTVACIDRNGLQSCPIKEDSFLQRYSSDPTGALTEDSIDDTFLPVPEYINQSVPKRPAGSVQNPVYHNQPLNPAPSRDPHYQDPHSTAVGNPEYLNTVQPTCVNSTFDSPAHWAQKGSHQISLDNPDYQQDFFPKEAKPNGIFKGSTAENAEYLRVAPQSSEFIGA

Compound	IC50 [1]	IC50 [2]	IC50 [3]	IC50 ([4]; read-out: Assay 1 IC50)	IC50 ([4]; Assay 1 IC50 (nM))
Cc1cc(Nc2ncnc3cnc(N4CCCC(OC(F)F)C4)nc23)ccc1Oc1ccc2c(c1)ncn2C (racemic) [Example 40, 6-(3-(difluoromethoxy)piperidin-1-yl)-N-(3-methyl-4-((1-methyl-1H-benzo[d]imidazol-5-yl)oxy)phenyl)pyrimido[5,4-d]pyrimidin-4-amine]	≥ 10000 nM	145 nM	91.5 nM	71.5 nM	–
Cc1cc(Nc2ncnc3cnc(N4CC5(CCOC5)C4)nc23)ccc1Oc1ccc2c(c1)ncn2C [Example 21, N-(3-methyl-4-((1-methyl-1H-benzo[d]imidazol-5-yl)oxy)phenyl)-6-(6-oxa-2-azaspiro[3.4]octan-2-yl)pyrimido[5,4-d]pyrimidin-4-amine]	1000 nM	98.4 nM	82.7 nM	33.7 nM	–
CC(=O)N1CC2CC(C1)N2c1ncc2ncnc(Nc3ccc(Oc4ccc5c(c4)ncn5C)c(C)c3)c2n1 [Example 23, 1-(6-(8-((3-methyl-4-((1-methyl-1H-benzo[d]imidazol-5-yl)oxy)phenyl)amino)pyrimido[5,4-d]pyrimidin-2-yl)-3,6-diazabicyclo[3.1.1]heptan-3-yl)ethan-1-one]	≥ 10000 nM	1340 nM	717 nM	313 nM	–
Cc1cc(Nc2ncnc3cnc(N4CC5CC(C4)N5C)nc23)ccc1Oc1ccc2c(c1)ncn2C [Example 33, N-(3-methyl-4-((1-methyl-1H-benzo[d]imidazol-5-yl)oxy)phenyl)-6-(6-methyl-3,6-diazabicyclo[3.1.1]heptan-3-yl)pyrimido[5,4-d]pyrimidin-4-amine]	≥ 10000 nM	371 nM	583 nM	100 nM	–
Cc1cc(Nc2ncnc3cnc(N4CC(C(F)F)C4)nc23)ccc1Oc1ccc2c(c1)ncn2C [Example 37, 6-(3-(difluoromethyl)azetidin-1-yl)-N-(3-methyl-4-((1-methyl-1H-benzo[d]imidazol-5-yl)oxy)phenyl)pyrimido[5,4-d]pyrimidin-4-amine]	≥ 10000 nM	393 nM	174 nM	78.8 nM	–
Cc1cc(Nc2ncnc3cnc(N4CC5CC(C5)C4)nc23)ccc1Oc1ccc2c(c1)ncn2C [Example 39, 6-(3-azabicyclo[3.1.1]heptan-3-yl)-N-(3-methyl-4-((1-methyl-1H-benzo[d]imidazol-5-yl)oxy)phenyl)pyrimido[5,4-d]pyrimidin-4-amine]	≥ 10000 nM	358 nM	292 nM	199 nM	–
Cc1cnc(-c2ncc3ncnc(Nc4ccc(Oc5ccc6c(c5)ncn6C)c(C)c4)c3n2)s1 [Example 41, N-(3-methyl-4-((1-methyl-1H-benzo[d]imidazol-5-yl)oxy)phenyl)-6-(5-methylthiazol-2-yl)pyrimido[5,4-d]pyrimidin-4-amine]	≥ 10000 nM	234 nM	53 nM	196 nM	–
COC1CN(c2ncc3ncnc(Nc4ccc(Oc5ccc6c(c5)ncn6C)c(C)c4)c3n2)C1 [Example 43, 6-(3-methoxyazetidin-1-yl)-N-(3-methyl-4-((1-methyl-1H-benzo[d]imidazol-5-yl)oxy)phenyl)pyrimido[5,4-d]pyrimidin-4-amine]	≥ 10000 nM	59.8 nM	92.1 nM	28.8 nM	–
Cc1cc(Nc2ncnc3cnc(NC4CCC4(F)F)nc23)ccc1Oc1ccc2c(c1)ncn2C (stereo not shown) [Example 52, N2-(2,2-difluorocyclobutyl)-N8-(3-methyl-4-((1-methyl-1H-benzo[d]imidazol-5-yl)oxy)phenyl)pyrimido[5,4-d]pyrimidine-2,8-diamine]	≥ 10000 nM	317 nM	160 nM	100 nM	–
Cc1cc(Nc2ncnc3cnc(N4CCC[C@H]4C(F)F)nc23)ccc1Oc1ccc2c(c1)ncn2C [Example 55, (S)-6-(2-(difluoromethyl)pyrrolidin-1-yl)-N-(3-methyl-4-((1-methyl-1H-benzo[d]imidazol-5-yl)oxy)phenyl)pyrimido[5,4-d]pyrimidin-4-amine]	≥ 10000 nM	260 nM	98.4 nM	110 nM	–
Cc1cc(Nc2ncnc3cnc(N4CCC[C@@H]4C(F)F)nc23)ccc1Oc1ccc2c(c1)ncn2C [Example 56, (R)-6-(2-(difluoromethyl)pyrrolidin-1-yl)-N-(3-methyl-4-((1-methyl-1H-benzo[d]imidazol-5-yl)oxy)phenyl)pyrimido[5,4-d]pyrimidin-4-amine]	≥ 10000 nM	403 nM	105 nM	205 nM	–
Cc1cc(Nc2ncnc3cnc(N[C@@H](C)COC(F)(F)F)nc23)ccc1Oc1ccc2c(c1)ncn2C [Example 63, (S)—N8-(3-methyl-4-((1-methyl-1H-benzo[d]imidazol-5-yl)oxy)phenyl)-N2-(1-(trifluoromethoxy)propan-2-yl)pyrimido[5,4-d]pyrimidine-2,8-diamine]	≥ 10000 nM	862 nM	191 nM	195 nM	–
Cc1cc(Nc2ncnc3cnc(N[C@H](C)COC(F)(F)F)nc23)ccc1Oc1ccc2c(c1)ncn2C [Example 64, (R)—N8-(3-methyl-4-((1-methyl-1H-benzo[d]imidazol-5-yl)oxy)phenyl)-N2-(1-(trifluoromethoxy)propan-2-yl)pyrimido[5,4-d]pyrimidine-2,8-diamine]	≥ 10000 nM	1300 nM	324 nM	157 nM	–
Cc1cc(Nc2ncnc3cnc(N4C[C@H](C)O[C@@H](C)C4)nc23)ccc1Oc1ccc2c(c1)ncn2C [Example 72, 6-((2S,6S)-2,6-dimethylmorpholino)-N-(3-methyl-4-((1-methyl-1H-benzo[d]imidazol-5-yl)oxy)phenyl)pyrimido[5,4-d]pyrimidin-4-amine]	≥ 10000 nM	83.9 nM	76.6 nM	–	69.6 nM
Cc1cc(Nc2ncnc3cnc(O[C@@H]4CNC[C@@H]4F)nc23)ccc1Oc1ccc2c(c1)ncn2C [Example 86, 6-(((3R,4S)-4-fluoropyrrolidin-3-yl)oxy)-N-(3-methyl-4-((1-methyl-1H-benzo[d]imidazol-5-yl)oxy)phenyl)pyrimido[5,4-d]pyrimidin-4-amine]	≥ 10000 nM	301 nM	261 nM	–	–
Cc1cc(Nc2ncnc3cnc(N(C)c4cnn(C)c4)nc23)ccc1Oc1ccc2c(c1)ncn2C [Example 108, N2-methyl-N2-(1-methyl-1H-pyrazol-4-yl)-N8-(3-methyl-4-((1-methyl-1H-benzo[d]imidazol-5-yl)oxy)phenyl)pyrimido[5,4-d]pyrimidine-2,8-diamine]	4310 nM	38.9 nM	–	38.4 nM	–
Cc1c(Oc2ccn3ncnc3c2)ccc(Nc2ncnc3cnc(N4C[C@@H]5CC4CO5)nc23)c1F [Example 313]	–	40.4 nM	–	21.3 nM	–
Cc1cc(Nc2ncnc3cnc(N(C)Cc4ccccc4)nc23)ccc1Oc1ccc2c(c1)ncn2C [Example 331]	≥ 10000 nM	389 nM	–	406 nM	–
Cc1cc(Nc2ncnc3cnc(N(C)C4CCCOC4)nc23)ccc1Oc1ccc2c(c1)ncn2C (stereo not shown) [Example 473]	–	20 nM	–	21.6 nM	–
Cc1cc(Nc2ncnc3cnc(N4CCN(C)[C@H](C)C4)nc23)ccc1Oc1ccc2c(c1)ncn2C [Example 490]	≥ 10000 nM	–	–	–	–
